Experimental data taken from patent publication US20090209525A1, “ENABLING METHODS TO IDENTIFY ALLOSTERIC MODULATORS OF RECEPTOR ACTIVITY” (priority 2006, published 2009).
Positions count from the first letter of the chain named. Where “and” joins values, the source holds several entries; their conditions need not be identical. Equal values may be shown once. Read-outs that look alike come from different tables or passages of the source.

Assays:
[1] = target: T1, rat M1 W101A receptor (Rattus norvegicus, UniProt P08482, W101A); experiment: R-SAT functional assay, W101A mutant; assay type: cell-based; settings: for increase in potency relative to wild-type: R-SAT; for Shift: EC50 W101A divided by EC50 wild-type; for Eff (%): maximum response, normalized; for EC50: read-out: pEC50 (converted)
T1 construct: expressed in transfected cells
T1 sequence (P08482 1-460 W101A): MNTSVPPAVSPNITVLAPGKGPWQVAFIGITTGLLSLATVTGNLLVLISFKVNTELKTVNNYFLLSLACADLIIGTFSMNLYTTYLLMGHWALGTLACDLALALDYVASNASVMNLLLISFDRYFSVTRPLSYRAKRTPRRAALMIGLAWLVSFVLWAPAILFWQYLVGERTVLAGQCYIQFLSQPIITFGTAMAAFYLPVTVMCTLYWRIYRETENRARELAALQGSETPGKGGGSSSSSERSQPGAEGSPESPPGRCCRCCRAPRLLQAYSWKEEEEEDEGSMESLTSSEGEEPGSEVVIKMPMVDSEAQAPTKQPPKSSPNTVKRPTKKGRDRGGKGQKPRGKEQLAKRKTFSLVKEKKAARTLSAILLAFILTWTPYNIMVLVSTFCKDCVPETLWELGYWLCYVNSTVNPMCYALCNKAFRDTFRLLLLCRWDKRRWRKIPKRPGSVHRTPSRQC
Protocol: (§1) Cells are co-transfected for 18 h with DMEM containing 0.08 micrograms/ml of an expression vector for the expression of the mutant receptor and 0.3 micrograms/ml pSI-Bgal (Promega, Madison Wis.), and 0.5% v/v Polyfect (Qiagen, Valencia Calif.), as recommended by the manufacturer. On day three, the medium is replaced with DMEM containing 1% PSG, 0.5% calf serum, 2% cyto-sf3 (Kemp Biotechnologies, Frederick, Md.), and varying concentrations of the compounds to be tested. Cells are grown in a humidified atmosphere with 5% ambient CO2 for 5 days. The media is removed from the plates, and beta-galactosidase activity is measured by the addition of o-nitrophenyl -d-galactopyranoside in phosphate-buffered saline with 5% Nonidet P-40. […] The following equation is fitted to the data using GraphPad Prism software (San Diego, Calif.):
(§2) NIH-3T3 cells were grown in 96-well tissue culture plates to 70 to 80% confluence in Dulbecco's modified essential media (DMEM) supplemented with 100 units/ml penicillin, 100 micrograms/ml streptomycin, 0.3 mg/ml L-glutamine (1% PSG, GIBCO) and 10% calf serum (Sigma-Aldrich). Cells were transfected for 18 h with DMEM containing 0.08 micrograms/ml receptor DNA and 0.3 micrograms/ml pSI-Bgal (Promega, Madison Wis.), 0.5% v/v Polyfect (Qiagen, Valencia Calif.). Medium was replaced with DMEM containing 1% PSG, 0.5% calf serum, 2% cyto-sf3 (Kemp Biotechnologies, Frederick, Md.), and varying concentrations of ligand. […] Cells were grown in a humidified atmosphere with 5% ambient CO2 for 5 days. Medium was removed from the plates, and beta-galactosidase activity was measured by the addition of o-nitrophenyl -d-galactopyranoside in phosphate-buffered saline with 5% Nonidet P-40.
Receptor Selection and Amplification (R-SAT™) Assays: R-SAT™ functional assays were carried out as follows. NIH-3T3 cells were grown in 96-well tissue culture plates to 70 to 80% confluence in Dulbecco's modified essential media (DMEM) supplemented with 100 units/ml penicillin, 100 micrograms/ml streptomycin, 0.3 mg/ml L-glutamine (1% PSG, GIBCO) and 10% calf serum (Sigma-Aldrich). Cells were transfected for 18 h with DMEM containing 0.08 micrograms/ml receptor DNA and 0.3 micrograms/ml pSI-Bgal (Promega, Madison Wis.), 0.5% v/v Polyfect (Qiagen, Valencia Calif.). The transfected cells were frozen away. Cells were thawed and added to 96 well plates with DMEM containing 1% PSG, 0.5% calf serum, 2% cyto-sf3 (Kemp Biotechnologies, Frederick, Md.), and varying concentrations of ligand.
In an effort to further characterize monoamine modulators, we used a panel of mutant muscarininc M1 receptors to analyze the activity and potency of orthosteric modulators and various allosteric modulators at those receptors.

[2] = target: T2, rat M1 L102A receptor (Rattus norvegicus, UniProt P08482, L102A); experiment: R-SAT functional assay, L102A mutant; assay type: cell-based; settings: for Eff (%) / Shift / EC50: Table 3; for Eff (%): maximum response, normalized; for Shift: EC50 L102A divided by EC50 wild-type
T2 construct: expressed in transfected cells; host or cells: NIH-3T3
T2 sequence (P08482 1-460 L102A): T1 sequence (P08482 1-460 W101A) with A101W, L102A
Protocol: as §1, §2

[3] = target: T1, rat M1 W101A receptor; experiment: ^3H-NMS radioligand binding, W101A; settings: for Shift: Ki W101A divided by Ki wild-type; for increase in binding affinity relative to wild-type: radioligand binding, W101A
Protocol: Briefly, cell homogenates are prepared from cells transiently or stably expressing wild type or mutant receptors. For transiently transfected cells, HEK cells are transfected with receptor of interest and cells harvested 48 hours post transfection. Cells expressing the receptor, stably or transiently, are harvested using phosphate buffered saline containing 5 mM EDTA, cells centrifuged at low speed and pellet re-suspended in binding buffer. Cell suspension is polytroned and centrifuged at 15,000×g. The pellet is resuspended in binding buffer and centrifugation repeated two more times. The washed cell homogenates are used for the competition binding assays. Competition binding assays are carried out in the presence of fixed amount of cell homogenate, fixed concentration of radioactively labeled orthosteric or allosteric ligand and varying concentrations of the cal under study using appropriate buffer. Incubations are carried out at room temperature for 2 hours. Incubations are terminated by filtration onto GF/B filters using Packard cell harvester followed by 3 washes with ice-cold buffer. Radioactivity retained on the filters is quantitated using Packard Top Count using Microscint 20 scintillation fluid. […] The membranes prepared above are incubated with a labeled ligand in 25 mM sodium phosphate, 5 mM magnesium chloride, 0.01% BSA two hours at room temperature. The binding reaction is stopped by rapid filtration onto GF/B filters. […] The pKd values (pKd=−log Kd) of the labeled ligand are calculated.
Radioligand binding assays were carried out in 25 mM sodium phosphate, 5 mM magnesium chloride, 0.01% BSA. Incubations were for two hours at room temperature, and reactions were stopped by rapid filtration onto GF/B filters.

[4] = Table 4, M1 W101A, maximum response relative to xanomeline
[5] = Table 10, M1 W101A, maximum response relative to AC-42

With `CCCCC1CCN(CCCC(=O)c2ccccc2C)CC1` [AC-42, 4-n-butyl-1-[4-(2-methylphenyl)-4-oxo-1-butyl] piperidine hydrogen chloride] the “increase in potency relative to wild-type” value ([1]; W101A) was 50 fold, the Shift ([1]; Table 3) was 0.02 and the “Eff (%)” value ([1]; Table 3, W101A) was 95 ± 10%. For the same compound, the EC50 ([1]; Table 3, W101A) was 3.16 nM, the “% Eff” value [1, 4] was 97% and the EC50 ([1]; Table 4, M1 W101A) was 7.94 nM. For the same compound, the “% Eff” value [1, 5] was 111%, the EC50 ([1]; Table 10, M1 W101A) was 7.94 nM and the “Eff (%)” value ([2]; L102A) was 6 ± 0%. For the same compound, the IC50 [3] was 50.1 nM, the Shift [3] was 0.01 and the “increase in binding affinity relative to wild-type” value [3] was 50 fold.

In the case of `CCCCC1CCN(CCCN2C(=O)COc3cc(F)ccc32)CC1` [AC-260584, 4-[3-(4-Butyl-piperidin-1-yl)-propyl]-7-fluoro-4H-benzo [1,4]oxazin-3-one], the “increase in potency relative to wild-type” value ([1]; W101A) is reported as 33 fold and 30 fold, the Shift ([1]; Table 3) is reported as 0.03 and the “Eff (%)” value ([1]; Table 3, W101A) is reported as 100 ± 8%. The EC50 ([1]; Table 3, W101A) was 0.398 nM, the “% Eff” value [1, 4] was 98% and the EC50 ([1]; Table 4, M1 W101A) was 0.2 nM. The “% Eff” value [1, 5] was 140%, the EC50 ([1]; Table 10, M1 W101A) was 3.16 nM and the “decrease in potency relative to wild-type” value ([2]; R-SAT, L102A) was 30 fold. For the same compound, the Shift [2] was 30, the EC50 ([2]; L102A) was 501 nM and the “Eff (%)” value ([2]; L102A) was 37 ± 7%. The IC50 [3] was 3.16 nM, the Shift [3] was 0.003 and the “increase in binding affinity relative to wild-type” value [3] was “over 100 fold”.

For `Clc1ccc2c(c1)N=C(N1CCNCC1)c1ccccc1N2` [NDMC, 8-chloro-11-(1-piperazinyl)-5H-dibenzo [b,e] [1,4] diazepine], the Shift ([1]; Table 3) was 5, the “Eff (%)” value ([1]; Table 3, W101A) was 88 ± 12% and the EC50 ([1]; Table 3, W101A) was 200 nM. For the same compound, the “% Eff” value [1, 4] was 72%, the EC50 ([1]; Table 4, M1 W101A) was 39.8 nM and the “% Eff” value [1, 5] was 93%. The EC50 ([1]; Table 10, M1 W101A) was 100 nM, the Shift [2] was greater than 100 and the EC50 ([2]; L102A) was greater than 10000 nM. The “Eff (%)” value ([2]; L102A) was >35 ± — %, the IC50 [3] was 126 nM and the Shift [3] was 1.
